Here are results for nine compounds from patent US7276508B2, “Indole derivatives useful for the treatment of CNS disorders” (H. Lundbeck A/S, priority 2000, dated 2007).

Structures can show the parent of a compound that is named as a salt.

One data set concerns the target T1, D4 receptor (Homo sapiens, UniProt P21917).
T1 sequence (P21917 1-419): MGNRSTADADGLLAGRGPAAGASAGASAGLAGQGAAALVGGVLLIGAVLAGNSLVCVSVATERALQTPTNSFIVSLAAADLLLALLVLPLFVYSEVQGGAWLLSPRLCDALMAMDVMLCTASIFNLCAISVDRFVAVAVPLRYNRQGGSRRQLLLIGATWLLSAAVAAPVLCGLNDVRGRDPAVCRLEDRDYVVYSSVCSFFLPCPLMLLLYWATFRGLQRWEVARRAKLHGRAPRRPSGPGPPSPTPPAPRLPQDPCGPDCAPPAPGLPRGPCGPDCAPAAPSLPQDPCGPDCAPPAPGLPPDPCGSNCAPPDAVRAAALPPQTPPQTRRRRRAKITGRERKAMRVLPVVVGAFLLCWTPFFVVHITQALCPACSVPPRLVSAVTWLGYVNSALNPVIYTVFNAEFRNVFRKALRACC
As to conditions: various in vitro efficacy assays; cited from earlier work.

The target of data set [1] is T2, human cloned dopamine D4.2 receptors (Homo sapiens, UniProt P21917, DEL265-296).
T2 construct: expressed in transfected cells; host or cells: CHO cells (membranes)
T2 sequence (P21917 with tags, fused parts or gaps DEL265-296): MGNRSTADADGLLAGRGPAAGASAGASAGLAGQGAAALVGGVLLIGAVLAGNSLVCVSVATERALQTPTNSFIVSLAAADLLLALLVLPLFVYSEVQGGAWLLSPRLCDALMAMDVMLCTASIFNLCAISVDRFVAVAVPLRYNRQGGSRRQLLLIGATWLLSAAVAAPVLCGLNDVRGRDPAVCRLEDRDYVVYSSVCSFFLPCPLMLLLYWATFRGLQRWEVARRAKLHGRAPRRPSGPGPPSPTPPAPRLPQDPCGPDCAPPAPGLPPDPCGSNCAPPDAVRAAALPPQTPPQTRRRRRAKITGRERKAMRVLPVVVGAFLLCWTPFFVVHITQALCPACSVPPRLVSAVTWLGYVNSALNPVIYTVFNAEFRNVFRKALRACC
Nature of the data set: Inhibition of the binding of [3H]YM-09151-2 to human dopamine D4 receptors. Particulars: [3H]YM-09151-2 0.06 nM, membranes of CHO cells; for inhibition at 0.05 µM: at 50 nM compound, read-out: D4-bind. % inhibition of binding at 50 nM. As for the experimental part:
Inhibition of the Binding of [^3H]YM-09151-2 to Human Dopamine D4 Receptors
By this method, the inhibition by drugs of the binding of [^3H]YM-09151-2 (0.06 nM) to membranes of human cloned dopamine D4.2 receptors expressed in CHO-cells is determined in vitro. Method modified from NEN Life Science Products, Inc., technical data certificate PC2533-10/96.

Broadly, the melting point is the temperature of the solid-liquid transition. With `O=C(CCCN1CCC(c2c[nH]c3ccc(Cl)cc23)CC1)N1CCc2ccccc2C1` [Compound 8, 5-Chloro-3-{1-[4-(3,4-dihydro-1H-isoquinolin-2-yl)-4-oxobutan-1-yl]piperidin-4-yl}-1H-indole], the melting point lay in the range of 172 to 175 °C.

The compound `O=C1CCc2ccccc2N1CCCN1CC=C(c2c[nH]c3ccc(F)cc23)CC1` (as salt: oxalate) [Compound 3a, 5-Fluoro-3-{1-[3-(2-oxo-3,4-dihydro-2H-quinolin-1-yl)propan-1-yl]-3,6-dihydro-2H-pyridin-4-yl}-1H-indole] returned a melting point of 220 to 223 °C.

`O=C(CCCN1CCC(c2c[nH]c3ccc(F)cc23)CC1)N1CCc2ccccc2C1` [Compound 7, 5-Fluoro-3-{1-[4-(3,4-dihydro-1H-isoquinolin-2-yl)-4-oxobutan-1-yl]piperidin-4-yl}-1H-indole] showed a melting point of 146 to 148 °C.

For the compound `CC(C)Oc1cccnc1N(C)C1CCN(Cc2ccccc2)CC1` [Compound U-101958], the “Functional activity at D4 receptor (literature)” value on D4 receptor is “partial D4 receptor agonists”.

As a reminder, the inhibition is how much of the control response was suppressed. As for `O=C(CCCN1CCC(c2c[nH]c3cccc(F)c23)CC1)N1CCc2ccccc2C1` [Compound 10b, 4-Fluoro-3-{1-[4-(3,4-dihydro-1H-isoquinolin-2-yl)-4-oxobutan-1-yl]piperidin-4-yl}-1H-indole], the inhibition at 0.05 µM in data set [1] is 81%.

Consider `O=C(CCN1CCC(c2c[nH]c3cccc(F)c23)CC1)N1CCc2ccccc2C1` [Compound 10a, 4-Fluoro-3-{1-[3-(3,4-dihydro-1H-isoquinolin-2-yl)-3-oxopropan-1-yl]piperidin-4-yl}-1H-indole], for which the inhibition at 0.05 µM in data set [1] came out at 93%.

With `O=C(CCCCN1CCC(c2c[nH]c3cccc(Cl)c23)CC1)N1CCc2ccccc2C1` [Compound 10e, 4-Chloro-3-{1-[5-(3,4-dihydro-1H-isoquinolin-2-yl)-5-oxopentan-1-yl]piperidin-4-yl}-1H-indole], in data set [1], the inhibition at 0.05 µM was found to be 25%.

A word on the IC50: it is the point on the concentration scale where inhibition reaches its midpoint. Take `O=C1COc2ccccc2N1CCCCN1CCC(c2c[nH]c3ccc(Cl)cc23)CC1` [Compound 2h, 5-Chloro-3-{1-[4-(3-oxo-3,4-dihydro-2H-1,4-benzoxazin-4-yl)butan-1-yl]piperidin-4-yl}-1H-indole]: the concentration for half-maximal inhibition (IC50) in data set [1] (read-out: D4-bind. IC50) was found to be 10 nM.

In turn, `O=C1CCc2ccccc2N1CCCCN1CCC(c2c[nH]c3ccc(F)cc23)CC1` (as salt: hydrochloride) [Compound 4, 5-Fluoro-3-{1-[4-(2-oxo-3,4-dihydro-2H-quinolin-1-yl)butan-1-yl]piperidin-4-yl}-1H-indole] returned a melting point of 212 to 213 °C.
